# Columns and labels:
# Jejunum [1] = assay: Spasmolytic activity in rabbit jejunum assessed as relaxation of K+-induced muscle contraction at 10 ug/ml relative to calcium; assay type: functional, Oryctolagus cuniculus
# Jejunum [2] = assay: Spasmolytic activity in rabbit jejunum assessed as relaxation of K+-induced muscle contraction at 30 ug/ml relative to calcium; assay type: functional, Oryctolagus cuniculus
Compound,Ratio (Jejunum [1]),Ratio (Jejunum [2])
CC(=O)O[C@H]1CC[C@]2(C)[C@H]3C=C[C@]45OC(=O)[C@@]6(CC[C@@H](C)[C@H](C)[C@H]64)CC[C@@]5(C)[C@]3(C)CC[C@H]2C1(C)C,6.2,17.51
C[C@H]1[C@H](C)CC[C@@]23CC[C@]4(C)[C@@](C=C[C@@H]5[C@@]6(C)CC[C@H](OC=O)C(C)(C)[C@@H]6CC[C@]54C)(OC2=O)[C@H]13 [CAMALDULIN],2.03,3.47
